Each block holds one compound with its values, some of them ahead of it.
Columns and labels:
Assay in all cases: ABPP chemical proteomics (LC-MS/MS) in HEK293T cells
Format in all cases: cell-based
ALDH1B1 = molecular target: T1, ALDH1B1 (Homo sapiens, UniProt P30837)
T1 construct: endogenous in cells; host or cells: HEK293T
T1 sequence (P30837 18-517): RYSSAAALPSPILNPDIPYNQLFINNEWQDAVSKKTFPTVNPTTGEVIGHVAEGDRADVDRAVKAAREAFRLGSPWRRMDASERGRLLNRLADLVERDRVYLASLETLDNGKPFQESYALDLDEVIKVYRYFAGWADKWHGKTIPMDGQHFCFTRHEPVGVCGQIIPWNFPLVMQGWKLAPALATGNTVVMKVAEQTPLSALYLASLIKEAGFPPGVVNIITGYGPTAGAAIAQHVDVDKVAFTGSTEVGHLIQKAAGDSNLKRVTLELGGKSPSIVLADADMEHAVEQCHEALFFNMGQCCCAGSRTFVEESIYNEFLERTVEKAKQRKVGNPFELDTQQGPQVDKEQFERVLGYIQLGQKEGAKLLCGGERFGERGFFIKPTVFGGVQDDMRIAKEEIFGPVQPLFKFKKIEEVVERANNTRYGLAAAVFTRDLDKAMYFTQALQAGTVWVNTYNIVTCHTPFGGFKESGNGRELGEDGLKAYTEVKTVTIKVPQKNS
How it was run: (§1)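 Cellular target engagement was assessed by probe competition. Labelled HEK293T lysates (≥400 µg protein) underwent copper-catalysed click ligation for 1 h at room temperature. Biotinylated proteins were pulled down on NeutrAvidin agarose in 0.2% SDS/HEPES pH 8.0 for 3 h before LC-MS/MS quantification.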

DESI2 = molecular target: T2, DESI2 (Homo sapiens, UniProt Q9BSY9)
T2 construct: endogenous in cells; host or cells: HEK293T
T2 sequence (Q9BSY9 whole entry): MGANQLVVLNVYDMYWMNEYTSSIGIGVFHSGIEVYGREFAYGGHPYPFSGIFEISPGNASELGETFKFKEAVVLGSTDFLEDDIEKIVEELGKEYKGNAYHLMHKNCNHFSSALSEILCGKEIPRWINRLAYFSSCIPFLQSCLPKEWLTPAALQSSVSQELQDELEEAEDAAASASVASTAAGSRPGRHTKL
How it was run: as §1

C21orf33 = molecular target: T3, C21orf33 (Homo sapiens, UniProt P0DPI2)
T3 construct: endogenous in cells; host or cells: HEK293T
T3 sequence (P0DPI2 42-268): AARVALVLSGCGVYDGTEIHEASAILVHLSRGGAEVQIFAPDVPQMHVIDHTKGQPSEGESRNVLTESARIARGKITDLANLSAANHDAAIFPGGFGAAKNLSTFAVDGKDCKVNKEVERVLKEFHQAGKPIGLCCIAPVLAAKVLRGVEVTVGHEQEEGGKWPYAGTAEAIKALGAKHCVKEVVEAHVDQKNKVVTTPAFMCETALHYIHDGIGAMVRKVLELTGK
How it was run: as §1

[1] = IMP-2587 labelling vs DMSO, 30 nM, 10 min, HEK293T (Table S2, Fig.5a)
[2] = compound 1 out-competition with IMP-2587 labelling, HEK293T (Table S3, Fig.5b)
[3] = IMP-2586 labelling vs DMSO, 30 nM, 10 min, HEK293T (Table S4, Fig.5c)
[4] = compound 3 out-competition with IMP-2586 labelling, HEK293T (Table S5, Fig.5d)

Compound: C#Cc1cccc(-c2cc(NC(=O)CC3CCN(C#N)C3)on2)c1 (centres unmarked) [IMP-2587]
Difference (log2 fold change of enrichment) (ALDH1B1; [1]): 3.53
Difference (log2 fold change of enrichment) (DESI2; [1]): 2.02
Difference (log2 fold change of enrichment) (C21orf33; [1]): 0.92

Difference (log2 fold change of enrichment) (ALDH1B1; [2]): -3.81
Difference (log2 fold change of enrichment) (DESI2; [2]): -1.75
Compound: N#CN1CC[C@H](CC(=O)Nc2cc(-c3cccc(Cl)c3)no2)C1 [compound 1, reference compound]

Compound: N#CN1CC[C@@H](NC(=O)c2cc(-c3ccccc3Oc3ccc(N=[N+]=[N-])cc3)n[nH]2)C1 [IMP-2586]
Difference (log2 fold change of enrichment) (ALDH1B1; [3]): 2.25
Difference (log2 fold change of enrichment) (DESI2; [3]): 3.40
Difference (log2 fold change of enrichment) (C21orf33; [3]): 3.93

Difference (log2 fold change of enrichment) (ALDH1B1; [4]): -1.78
Difference (log2 fold change of enrichment) (DESI2; [4]): -3.13
Difference (log2 fold change of enrichment) (C21orf33; [4]): -3.65
Compound: N#CN1CC[C@@H](NC(=O)c2cc(-c3ccccc3Oc3ccccc3)n[nH]2)C1 [compound 3, reference compound]

Source: publication PMC11078216, “Discovery of potent and selective activity-based probes (ABPs) for the deubiquitinating enzyme USP30” (RSC Chemical Biology, 2024)
